Source: ChEMBL document CHEMBL5729568, “Ras inhibitors” (2023)
“Also recorded” adds a separate entry of the source.

How the values were obtained:
[1] = (§1) Biochemical Assay: A variety of Ras proteins may be inhibited by compounds of the present invention (e.g., K-Ras, N-Ras, H-Ras, and mutants thereof at positions 12, 13 and 61, such as G12C, G12D, G12V, G12S, G13C, G13D, and Q61L, and others described herein). The purpose of this biochemical assay is to measure the ability of test compounds to covalently label nucleotide-loaded K-Ras isoforms. […] The sample is incubated at 25? C. for a time period of up to 24 hours prior to quenching by the addition of 10 uL of 5% Formic Acid. Quenched samples are centrifuged at 15000 rpm for 15 minutes in a benchtop centrifuge before injecting a 10 uL aliquot onto a reverse phase C4 column and eluting into the mass spectrometer with an increasing acetonitrile gradient in the mobile phase. Analysis of raw data may be carried out using Waters MassLynx MS software, with % bound calculated from the deconvoluted protein peaks for labeled and unlabeled K-Ras.
[2] = as §1; remark: listed apart in the source
[3] = as §1; remark: listed apart in the source
[4] = as §1; remark: listed apart in the source
[5] = as §1; remark: listed apart in the source
[6] = as §1; remark: listed apart in the source
[7] = as §1; remark: listed apart in the source

| Compound | IC50 [1] | IC50 [2] | IC50 [3] | IC50 [4] | IC50 [5] | IC50 [6] | IC50 [7] |
| --- | --- | --- | --- | --- | --- | --- | --- |
| COC(C)c1ncccc1-c1c2c3cc(ccc3n1CC(F)(F)F)-c1cccc(c1)C[C@H](NC(=O)[C@@H](COC1CN(C(=O)C#CC(C)(C)N(C)C)C1)C(C)C)C(=O)N1CCC[C@H](N1)C(=O)OCC(C)(C)C2 (some centres not stated) | < 0.01 µM | > 10 µM | in the range around 5.5 µM | in the range around 5.5 µM | > 10 µM | in the range around 5.5 µM | in the range around 5.5 µM |
| CCn1c(-c2cccnc2C(C)OC)c2c3cc(ccc31)N1CCC[C@@H](C[C@H](NC(=O)[C@@H](COC3CN(C(=O)C#CC(C)(C)N(C)C)C3)C(C)C)C(=O)N3CCC[C@H](N3)C(=O)OCC(C)(C)C2)C1 (some centres not stated) | in the range around 0.055 µM | > 10 µM | > 10 µM | > 10 µM | > 10 µM | > 10 µM | > 10 µM |
| CCn1c(-c2cccnc2C(C)OC)c2c3cc(ccc31)N1CCO[C@@H](C[C@H](NC(=O)[C@@H](COC3CCN(C(=O)C#CC(C)(C)N(C)C)CC3)C(C)C)C(=O)N3CCC[C@H](N3)C(=O)OCC(C)(C)C2)C1 (some centres not stated) | in the range around 0.055 µM | > 10 µM | in the range around 5.5 µM | > 10 µM | > 10 µM | > 10 µM | > 10 µM |
| C=CC(=O)N1CC[C@H](C(=O)N(C)[C@H](C(=O)N[C@H]2Cc3cc(sn3)-c3ccc4c(c3)c(c(-c3cccnc3[C@H](C)OC)n4CC)CC(C)(C)COC(=O)[C@@H]3CCCN(N3)C2=O)C(C)C)C1 |  |  |  |  | in the range around 5.5 µM; also recorded: in the range around 550 nM |  |  |
| CCn1c(-c2cccnc2C(C)OC)c2c3cc(ccc31)-c1cccc(c1)C[C@H](NC(=O)[C@@H](COC1CN(C(=O)C#CC(C)(C)N3CCC3)C1)C(C)C)C(=O)N1CCC[C@H](N1)C(=O)OCC(C)(C)C2 (some centres not stated) | in the range around 0.055 µM | > 10 µM | in the range around 5.5 µM | in the range around 5.5 µM | > 10 µM | > 10 µM | in the range around 5.5 µM |
| COC(C)c1ncccc1-c1c2c3cc(ccc3n1CC(F)(F)F)N1CCO[C@@H](C[C@H](NC(=O)[C@@H](COC3CN(C(=O)C#CC(C)(C)N(C)C)C3)C(C)C)C(=O)N3CCC[C@H](N3)C(=O)OCC(C)(C)C2)C1 (some centres not stated) | < 0.01 µM | > 10 µM | in the range around 5.5 µM | > 10 µM | > 10 µM | > 10 µM | in the range around 5.5 µM |
| C=CC(=O)N1CC(OC[C@H](C(=O)N[C@H]2Cc3cc(cc(C(F)F)c3)-c3ccc4c(c3)c(c(-c3cccnc3C(C)OC)n4CC)CC(C)(C)COC(=O)[C@@H]3CCCN(N3)C2=O)C(C)C)C1 (some centres not stated) | in the range around 5.5 µM | > 10 µM | in the range around 5.5 µM | in the range around 5.5 µM | > 10 µM | > 10 µM | > 10 µM |
| C=CC(=O)N1CC[C@H](C(=O)N(C)[C@H](C(=O)N[C@H]2C[C@H]3CN(CCO3)c3ccc4c(c3)c(c(-c3cccnc3C(C)OC)n4CC)CC(C)(C)COC(=O)[C@@H]3CCCN(N3)C2=O)C(C)C)C1 (some centres not stated) | in the range around 0.55 µM | > 10 µM | in the range around 5.5 µM | > 10 µM | > 10 µM | in the range around 5.5 µM | in the range around 5.5 µM |
| CCn1c(-c2cccnc2C(C)OC)c2c3cc(ccc31)-c1cccc(c1)C[C@H](NC(=O)[C@@H](COC1CN(C(=O)C#C[C@H]3COCCN3C)C1)C(C)C)C(=O)N1CCC[C@H](N1)C(=O)OCC(C)(C)C2 (some centres not stated) | in the range around 0.055 µM | > 10 µM | in the range around 5.5 µM | > 10 µM | > 10 µM | > 10 µM | > 10 µM |
| C=CC(=O)N1CCOC2(CCN(C(=O)N(C)[C@H](C(=O)N[C@H]3C[C@H]4CN(CCO4)c4ccc5c(c4)c(c(-c4cccnc4C(C)OC)n5CC)CC(C)(C)COC(=O)[C@@H]4CCCN(N4)C3=O)C(C)C)CC2)C1 (some centres not stated) | in the range around 0.55 µM | in the range around 5.5 µM | in the range around 0.055 µM | in the range around 0.55 µM | in the range around 5.5 µM | in the range around 0.55 µM | in the range around 0.55 µM |
| C=C(C)C(=O)N1CC(N(C)C(=O)N(C)[C@H](C(=O)N[C@H]2Cc3nc(cs3)-c3ccc4c(c3)c(c(-c3cccnc3[C@H](C)OC)n4CC)CC(C)(C)COC(=O)[C@@H]3CCCN(N3)C2=O)C(C)C)C1 (atropisomer, axis not shown) |  |  | in the range around 5.5 µM | in the range around 5.5 µM | in the range around 5.5 µM | in the range around 5.5 µM | in the range around 5.5 µM |

Continued, values first:

| IC50 [1] | IC50 [2] | IC50 [3] | IC50 [4] | IC50 [5] | IC50 [6] | IC50 [7] | Compound |
| --- | --- | --- | --- | --- | --- | --- | --- |
| in the range around 0.55 µM | > 10 µM | > 10 µM | > 10 µM | > 10 µM | > 10 µM | > 10 µM | COC(C)c1ncccc1-c1c2c3cc(ccc3n1CC(F)(F)F)-c1cc(cc(C(F)F)c1)C[C@H](NC(=O)[C@@H](COC1CN(C(=O)C#CC(C)(C)N(C)C)C1)C(C)C)C(=O)N1CCC[C@H](N1)C(=O)OCC(C)(C)C2 (some centres not stated) |
| in the range around 0.055 µM | > 10 µM | in the range around 5.5 µM | in the range around 5.5 µM | > 10 µM | > 10 µM | in the range around 5.5 µM | CCn1c(-c2cccnc2C(C)OC)c2c3cc(ccc31)-c1cc(F)cc(c1)C[C@H](NC(=O)[C@@H](COC1CN(C(=O)C#CC(C)(C)N(C)C)C1)C(C)C)C(=O)N1CCC[C@H](N1)C(=O)OCC(C)(C)C2 (some centres not stated) |
| < 0.01 µM | in the range around 5.5 µM | < 0.01 µM | in the range around 0.55 µM | in the range around 5.5 µM | in the range around 5.5 µM | in the range around 5.5 µM | C=CC(=O)Nc1ncc(C(=O)N(C)[C@H](C(=O)N[C@H]2Cc3cccc(c3)-c3ccc4c(c3)c(c(-c3cccnc3C(C)OC)n4CC)CC(C)(C)COC(=O)[C@@H]3CCCN(N3)C2=O)C(C)C)n1C (some centres not stated) |
| < 0.01 µM | > 10 µM | in the range around 5.5 µM | in the range around 5.5 µM | > 10 µM | > 10 µM | in the range around 5.5 µM | CCn1c(-c2cccnc2C(C)OC)c2c3cc(ccc31)-c1csc(n1)C[C@H](NC(=O)[C@@H](COC1CN(C(=O)C#CC(C)(C)N(C)C)C1)C(C)C)C(=O)N1CCC[C@H](N1)C(=O)OCC(C)(C)C2 (some centres not stated) |
| in the range around 0.55 µM | > 10 µM | in the range around 5.5 µM | in the range around 5.5 µM | in the range around 5.5 µM | in the range around 5.5 µM | > 10 µM | C=CC(=O)C1CC[C@H](C(=O)C(C)[C@H](C(=O)N[C@H]2Cc3nc(cs3)-c3ccc4c(c3)c(c(-c3cccnc3C(C)OC)n4CC)CC(C)(C)COC(=O)[C@@H]3CCCN(N3)C2=O)C(C)C)C1 (some centres not stated) |
| < 0.01 µM | in the range around 5.5 µM | in the range around 0.55 µM | in the range around 5.5 µM | in the range around 5.5 µM | in the range around 5.5 µM | in the range around 5.5 µM | COC(C)c1ncccc1-c1c2c3cc(ccc3n1CC(F)(F)F)-c1cccc(c1)CN(NC(=O)[C@@H](COC1CN(C(=O)C#CC(C)(C)N(C)C)C1)C(C)C)C(=O)N1CCC[C@H](N1)C(=O)OCC(C)(C)C2 (some centres not stated) |
| in the range around 0.55 µM | in the range around 5.5 µM | in the range around 0.55 µM | in the range around 5.5 µM | > 10 µM and in the range around 5.5 µM | in the range around 5.5 µM | in the range around 5.5 µM | C=CC(=O)N1CCO[C@H]2CN(C(=O)N(C)[C@H](C(=O)N[C@H]3C[C@H]4CN(CCO4)c4ccc5c(c4)c(c(-c4cccnc4C(C)OC)n5CC)CC(C)(C)COC(=O)[C@@H]4CCCN(N4)C3=O)C(C)C)C[C@H]21 (some centres not stated) |
| < 0.01 µM | > 10 µM | in the range around 5.5 µM | in the range around 5.5 µM | in the range around 5.5 µM | in the range around 5.5 µM | in the range around 5.5 µM | COC(C)c1ncccc1-c1c2c3cc(ccc3n1CC(F)(F)F)-c1csc(n1)C[C@H](NC(=O)[C@@H](COC1CN(C(=O)C#CC(C)(C)N(C)C)C1)C(C)C)C(=O)N1CCC[C@H](N1)C(=O)OCC(C)(C)C2 (some centres not stated) |
| < 0.01 µM | > 10 µM | in the range around 5.5 µM | in the range around 5.5 µM | > 10 µM | in the range around 5.5 µM | in the range around 5.5 µM | COC(C)c1ncccc1-c1c2c3cc(ccc3n1CC(F)(F)F)-c1cc(F)cc(c1)C[C@H](NC(=O)[C@@H](COC1CN(C(=O)C#CC(C)(C)N(C)C)C1)C(C)C)C(=O)N1CCC[C@H](N1)C(=O)OCC(C)(C)C2 (some centres not stated) |
| in the range around 0.55 µM | > 10 µM | > 10 µM |  |  | > 10 µM | > 10 µM | CCn1c(-c2cccnc2C(C)OC)c2c3cc(ccc31)-c1cc(cc(C(F)F)c1)C[C@H](NC(=O)C(COC1CN(C(=O)C#CC(C)(C)N(C)C)C1)C(C)C)C(=O)N1CCC[C@H](N1)C(=O)OCC(C)(C)C2 (some centres not stated) |
